According to article PMC7112222, “Investigation of pyrimidine nucleoside analogues as chemical probes to assess compound effects on the proliferation of Trypanosoma cruzi intracellular parasites” (PLoS Neglected Tropical Diseases, 2020):
Where two headings read alike, the source gives them in different places.

Columns and labels:
[1] = tested on: T. cruzi intracellular amastigotes; assay: Image-based assay of the number of T. cruzi infected cells (intracellular amastigotes in 3T3 host cells); assay type: cell-based, Trypanosoma cruzi; details: for T. cruzi Wash off IC50 value: compound wash off, further 72 hours without compound; for inhibition at 183 µM: read-out: inhibition of T. cruzi growth at highest test concentration
Procedure: (§1) Parasites and host cells were maintained as outlined previously. Briefly, host 3T3 fibroblasts (ATCC, CCL-92) were grown in RPMI medium (Thermo Fisher Scientific, USA) with no phenol red, supplemented with 10% FBS (Thermo Fisher Scientific, USA) and incubated at 37°C in 5% CO2. Host cells were harvested at 70% confluency and were split every 2–3 days in 175 cm^2 flasks. 3T3 cells were cultured up to passage 7 as contact inhibition was reduced or lost at higher passages. Prior to infection with T. cruzi trypomastigotes, host cells were seeded at 1.2 x 10^6 cells in 75 cm^2 or 4 x 10^5 cells in 25 cm^2 flasks and grown for 24 hours before parasite addition. Parasites were added at a multiplicity of infection (MOI) of 10:1 and incubated for 24 hours before non-infected trypomastigotes were washed off the host cell bed with PBS supplemented with Ca^2+ and Mg^2+ (Thermo Fisher Scientific, USA). Incubation was continued for a further 3 days, until tissue culture trypomastigotes began to egress from host cells. Egressed parasites were used for assays or to continue the infective life cycle in vitro.
(§2) The activity of the nucleoside analogues against T. cruzi intracellular amastigotes following 24, 48 hours exposure and compound wash off, was determined using image-based techniques as previously described. Briefly, 14-point serial dilutions of the compounds in 100% DMSO were prepared and then further diluted in sterile water at a ratio of 1:21 compound: water. Five microliters of the diluted compounds were added to wells of T. cruzi infected host cells, using a MiniTrak compound handling device (Perkin Elmer, USA) with final concentrations in the plate ranging from 183 μM to 4.6 x 10^−4 μM. All experiments were performed with two separate biological replicates.
IC50 values for inhibitory activity of both the nucleoside analogues tested as DNA probes and known inhibitors tested to determine their effect on replication of T. cruzi were calculated in GraphPad Prism 5, using sigmoidal dose response with variable slope. […] The p-value for difference in the % activity at Emax concentrations for compounds with known activity (EdU identified parasites, compared to Hoechst identified parasites) against T. cruzi was determined using GraphPad Prism 5, using an unpaired student’s t-test. […] The Emax for each compound was at least two data points in from the beginning of the plateau of activity in the IC50 curve, as previously described.

[2] = tested on: T. cruzi intracellular amastigotes; assay: Detection of T. cruzi replication following exposure to inhibitors (EdU incorporation vs Hoechst); assay type: cell-based, Trypanosoma cruzi; details: for IC50: 48 hours exposure, mean ± SD
Procedure: The addition of host cells, parasites and compounds were as described for the T. cruzi image based method previously reported. […] Addition of nuclear and cytoplasmic dyes was undertaken as previously reported and images captured on an Opera confocal image-based system at 20x magnification. Image analysis was performed with a script developed in Columbus software (CHEMICAL LABEL INCORPORATION SCRIPT). Control wells were also imaged at an increased, 60x magnification to show the distribution of staining and the structure of the parasites within host cells. Eight background control wells consisted of infected host cells, fixed and exposed to Hoechst and the click chemistry cocktail, without the addition of the chemical probe EdU. […] All images taken were not modified and were taken on an Opera, confocal image-based reader.

[3] = tested on: T. cruzi amastigote DNA; assay: Incorporation of pyrimidine nucleoside analogues into T. cruzi amastigote DNA (click chemistry, colocalisation with Hoechst); assay type: cell-based, Trypanosoma cruzi; details: for incorporation (no incorporation observed): concentrations up to a maximum of 73 μM
Procedure: T. cruzi infected 3T3 fibroblasts were initially exposed to nucleoside analogues for 48 hours at concentrations ranging from 73 μM to 1.8 x10^-4 μM. Host cell, parasite and compound additions were carried out as previously described. Cells were then stained using a click chemistry azide cocktail, followed by Hoechst to identify nuclear material, as previously reported. The freshly prepared azide cocktail consisted of a final concentration of 5 μM of Alexa Fluor 488 azide (Thermo Fisher Scientific, USA), 1 mM copper sulfate (Sigma Aldrich, USA) and 100 mM sodium ascorbate (Sigma Aldrich, USA), in DPBS. Wells were imaged on an Opera image-based reader (Perkin Elmer, USA) at 20x magnification with 405 nm (defined as Hoechst channel) and 488 nm (defined as Alexa 488 channel) lasers using filter sets/bandwidth (emission) of 450/50 nm and 540/75 nm, respectively. To determine nucleoside analogue incorporation into T. cruzi amastigote DNA, a script was developed utilising the Columbus (PerkinElmer, USA) image-based analysis and data handling platform (CHEMICAL LABEL INCORPORATION SCRIPT). Nucleoside analogues were also tested for DNA incorporation following 2, 4 and 24 hours exposure, at the same concentrations. All experiments were performed in duplicate. The colocalisation of nucleoside analogues and Hoechst (replicating parasites) at each time point (48, 4 and 2 hours) was compared using GraphPad Prism 5.
A CHEMICAL LABEL INCORPORATION SCRIPT developed in Columbus firstly identified Hoechst stained parasites within host cells by spot analysis, utilizing the same building block analysis as we had previously developed to determine T. cruzi infected cells. The physical definition of amastigote DNA was identified by Hoechst, with the only modification being that as there was no cytoplasmic marker, thus segmentation borders in the Hoechst channel were applied, which effectively separated host cells (Fig 2). Further building blocks were added to calculate the intensity of Alexa Fluor 488 within the spots identified by Hoechst, in infected cells. This script was first applied to images to determine the mean fluorescence intensity in the Alexa 488 channel of Hoechst identified parasites, without the addition of the chemical label. The mean plus three times the standard deviation of this intensity was used to define values above background, thus the minimum intensity above background required to identify parasite DNA which successfully incorporated the chemical label. An input box was incorporated into the script, in which this minimum intensity above background was entered. Parameters of the developed script, “CHEMICAL LABEL INCORPORATION” are shown in S1 Table.
• Number of T. cruzi amastigote infected cells (≥5 parasites per cell, identified with Hoechst). • Number of Hoechst identified T. cruzi parasites (in infected cells). • Number of parasites incorporating chemical label (T. cruzi parasites with Alexa 488 intensity above background, in infected cells). • % chemical label incorporation. Alexa 488 spots in infected cells (above background) NO / Hoechst spots in infected cells NO *100 = Percentage colocalisation; where NO = number of objects. • Number of host cells.

[4] = tested on: 3T3 cells; assay: Image-based assay, effect on 3T3 host cells; assay type: cell-based; details: 48 h, highest test concentration 183 μM
Procedure: as §1
as §2, with “The activity of the nucleoside analogues against T. cruzi intracellular amastigotes following 24, 48 hours exposure and compound wash off, was determined using image-based techniques as previously described.” left out
Image analysis was performed with a script developed in Columbus software (CHEMICAL LABEL INCORPORATION SCRIPT). Control wells were also imaged at an increased, 60x magnification to show the distribution of staining and the structure of the parasites within host cells. Eight background control wells consisted of infected host cells, fixed and exposed to Hoechst and the click chemistry cocktail, without the addition of the chemical probe EdU. […] The percentage activity of compounds against parasite number / infected cells (identified with Hoechst) was calculated against a positive control of 12 μM of NFX for the parasite and 30 μM of PURO the host cells; and a negative control of 0.47% DMSO. All images taken were not modified and were taken on an Opera, confocal image-based reader.

[5] = tested on: HEK293 cells; assay: Redox-based assay to assess HEK293 viability; assay type: cell-based, human; details: 48 hours exposure, highest test concentration 87 μM, EdU value estimated, relative to Emax plateau of 57%
Procedure: To determine the effect of the nucleoside analogues against a replicating mammalian cell line, analogues were tested against HEK293 cells, utilising a REDOX-based metabolic assay to assess cell viability as previously described. […] Experiments were performed over two biological replicates.

[6] = Trypanosoma cruzi, 48 hours exposure, well-established intracellular infection assay, mean ± SD, POSA value based on sub-optimal effect (Emax 75%), read-out: IC50 value Infected cells (Hoechst)
[7] = Trypanosoma cruzi, then 0.37 μM EdU for 4 hours, number of EdU incorporating parasites, read-out: IC50 value Amastigotes (EdU)
[8] = Trypanosoma cruzi, number of Hoechst identified parasites in infected cells, read-out: IC50 value Amastigotes (Hoechst)
[9] = 24 hours exposure, highest test concentration 183 μM
[10] = 48 hours incubation, highest test concentration 183 μM
[11] = Trypanosoma cruzi, 48 h, 48 hours incubation

IC50 [2, 7]	IC50 [2, 8]	SMILES	IC50 [1, 6]	incorporation into T. cruzi DNA following 48 hours incubation (in words) [3]	incorporation (no incorporation observed) ([3]; 48 hours)	Host cell 3T3 IC50 value 48 h [4]	HEK293 IC50 value [5]	T. cruzi 24 IC50 value [1, 9]	T. cruzi Wash off IC50 value [1, 10]	T. cruzi 48 IC50 value [1, 10]	inhibition at 183 µM [1, 11]	other results
1290 ± 250 nM	2800 ± 940 nM	O=C(Cn1ccnc1[N+](=O)[O-])NCc1ccccc1 [BZ, benznidazole]	6700 ± 640 nM	–	–	–	–	–	–	–	–	inhibition at 127 µM ([2]; Trypanosoma cruzi, 2 h, read-out: mean inhibition of incorporation of EdU into the parasite DNA): 72 ± 8.7%
–	–	C#Cc1cn([C@@H]2O[C@H](CO)[C@@H](O)[C@@H]2Br)c(=O)[nH]c1=O [Br-ara-EdU, (2′S)-2′-bromo-2′-deoxy-5-ethynyl-uridine]	–	did not	< 20%	NA (NA = ≤50% activity at the highest concentration tested and an IC50 value could not be determined)	NA (NA = ≤50% activity at the highest concentration tested and an IC50 value could not be determined)	NA (NA = ≤50% activity at the highest concentration tested and an IC50 value could not be determined)	NA (NA = ≤50% activity at the highest concentration tested and an IC50 value could not be determined)	NA (NA = ≤50% activity at the highest concentration tested and an IC50 value could not be determined)	≤ 50%	–
–	–	C#Cc1cn([C@@H]2O[C@H](CO)[C@@H](O)[C@@H]2Cl)c(=O)[nH]c1=O [Cl-ara-EdU, (2′S)-chloro-2′-deoxy-5-ethynyl-uridine]	–	did not	< 20%	NA (NA = ≤50% activity at the highest concentration tested and an IC50 value could not be determined)	NA (NA = ≤50% activity at the highest concentration tested and an IC50 value could not be determined)	NA (NA = ≤50% activity at the highest concentration tested and an IC50 value could not be determined)	NA (NA = ≤50% activity at the highest concentration tested and an IC50 value could not be determined)	NA (NA = ≤50% activity at the highest concentration tested and an IC50 value could not be determined)	≤ 50%	–
–	–	C#Cc1cn([C@@H]2O[C@H](CO)[C@@H](O)[C@@H]2F)c(=O)[nH]c1=O [F-ara-EdU, (2S′)-2′-deoxy-2′-fluoro-5-ethynyl-uridine]	–	incorporated	–	NA (NA = ≤50% activity at the highest concentration tested and an IC50 value could not be determined)	NA (NA = ≤50% activity at the highest concentration tested and an IC50 value could not be determined)	NA (NA = ≤50% activity at the highest concentration tested and an IC50 value could not be determined)	NA (NA = ≤50% activity at the highest concentration tested and an IC50 value could not be determined)	NA^3 (NA = ≤50% activity at the highest concentration tested and an IC50 value could not be determined)	≤ 50%	incorporation into parasite DNA following 2 hours exposure ([3]; 2 hours exposure): No incorporation; % of T. cruzi parasites with incorporation ([3]; 4 hours, 73 μM): 36 ± 7.3%; % of parasites with analogue incorporated ([3]; 48 hours, top concentration 73 μM): 91 ± 0.23%; inhibition at 73 µM ([1]; Trypanosoma cruzi, 48 h, 73 μM, 48 hours incubation, read-out: inhibition / activity against T. cruzi amastigotes at 73 μM): < 50%
3.8 ± 1 nM	3.8 ± 1 nM	CC[C@@H]([C@H](C)O)n1ncn(-c2ccc(N3CCN(c4ccc(OC[C@@H]5CO[C@@](Cn6cncn6)(c6ccc(F)cc6F)C5)cc4)CC3)cc2)c1=O [POSA, posaconazole]	4 ± 8.2 nM	–	–	–	–	–	–	–	–	Emax ([1]; Trypanosoma cruzi, 48 hours, infected cells (Hoechst), read-out: maximum activity (Emax) against T. cruzi): 75%; inhibition of EdU incorporation ([2]; 2 hours exposure, 1 μM (250 x the IC50 value), then 1.83 μM EdU 2 hours): no inhibition
–	–	COc1ccc(C[C@H](N)C(=O)N[C@H]2[C@@H](O)[C@H](n3cnc4c(N(C)C)ncnc43)O[C@@H]2CO)cc1 [PURO, puromycin]	–	–	–	–	–	–	–	–	–	IC50 ([4]; Mus musculus, NIH3T3, read-out: Host cell 3T3 IC50 value 48 h): 4400 ± 800 nM; IC50 ([5]; Homo sapiens, HEK293): 410 ± 170 nM; IC50 ([1]; Trypanosoma cruzi, 24 hours exposure, highest test concentration 183 μM, read-out: T. cruzi 24 IC50 value): 7600 ± 1200 nM; Emax ([1]; Trypanosoma cruzi, 24 hours exposure, read-out: T. cruzi 24 relative Emax (in brackets) (converted)): 92%; IC50 ([1]; Trypanosoma cruzi, 48 hours incubation, highest test concentration 183 μM, read-out: T. cruzi 48 IC50 value): 2360 ± 780 nM; Emax ([1]; Trypanosoma cruzi, 48 hours incubation, read-out: T. cruzi 48 relative Emax (in brackets) (converted)): 100%
